Measurements reported in patent US20190127366A1 (LifeSci Pharmaceuticals, Inc., priority 2015, published 2019).

Biological target: T1, human complement factor D (Homo sapiens, UniProt P00746)
T1 construct: purchased R&D Systems 1824-SE
Experiment: In vitro enzyme inhibition (Z-Lys-SBzl/DTNB absorbance assay)
Format: biochemical
Conditions: Complement Factor D (R&D Systems), substrate Z-Lys-SBzl, A405 nm; read-out: CFD IC50
Outline: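 Factor D (6.25 ng/μL before addition) preincubated 5 min RT with compound (8 points from 50 μM, 6-fold, 0.5% DMSO final) in 50 mM Tris/HCl pH 7.5, 1 M NaCl, then Z-Lys-SBzl/DTNB added (200 μM each before addition). A405 read kinetically every 30 s for 60 min; IC50 from variable-slope fit, controls with and without enzyme.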

T1 sequence (P00746 26-253): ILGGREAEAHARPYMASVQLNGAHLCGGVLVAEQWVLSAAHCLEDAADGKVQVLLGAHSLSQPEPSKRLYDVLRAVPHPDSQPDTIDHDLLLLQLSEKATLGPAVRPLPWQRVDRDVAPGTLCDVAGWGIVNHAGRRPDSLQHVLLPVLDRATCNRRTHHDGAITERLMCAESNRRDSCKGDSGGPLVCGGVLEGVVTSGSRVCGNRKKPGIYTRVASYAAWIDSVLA

Row | SMILES | IC50
1 | NC(=O)c1nn(CC(=O)N2[C@H]3CC[C@H](C3)[C@@H]2C(=O)Nc2cccc(C(F)(F)F)n2)c2ccccc12 [Example 17, 1-(2-oxo-2-((1S,3R,4R)-3-((6-(trifluoromethyl)pyridin-2-yl)carbamoyl)-2-azabicyclo[2.2.1]heptan-2-yl)ethyl)-1H-indazole-3-carboxamide] | 1000 to 10000 nM
2 | N#Cc1ccc(Cl)c(F)c1CNC(=O)[C@@H]1[C@H]2CC[C@H](C2)N1C(=O)Cn1nc(C(N)=O)c2ccccc21 [Example 119, 1-(2-((1R,3S,4S)-3-((3-chloro-6-cyano-2-fluorobenzyl)carbamoyl)-2-azabicyclo[2.2.1]heptan-2-yl)-2-oxoethyl)-1H-indazole-3-carboxamide] | 1000 to 10000 nM
3 | COC(=O)c1ccc2c(c1)c(C(N)=O)nn2CC(=O)N1[C@@H]2CC[C@@H](C2)[C@H]1C(=O)Nc1cccc(Cl)n1 [Example 78, methyl 3-carbamoyl-1-(2-((1R,3S,4S)-3-((6-chloropyridin-2-yl)carbamoyl)-2-azabicyclo[2.2.1]heptan-2-yl)-2-oxoethyl)-1H-indazole-5-carboxylate] | 100 to 1000 nM
4 | CC(O)c1nn(CC(=O)N2[C@@H]3CC[C@@H](C3)[C@H]2C(=O)Nc2cccc(Cl)n2)c2ccccc12 (stereo partly drawn) [Example 85, (1R,3S,4S)-N-(6-chloropyridin-2-yl)-2-(2-(3-(1-hydroxyethyl)-1H-indazol-1-yl)acetyl)-2-azabicyclo[2.2.1]heptane-3-carboxamide] | > 10000 nM
5 | NC(=O)c1nn(CC(=O)N2[C@@H]3CC[C@@H](C3)[C@H]2C(=O)Nc2cc(Cl)ccn2)c2ccccc12 [Example 51, 1-(2-((1R,3S,4S)-3-((4-chloropyridin-2-yl)carbamoyl)-2-azabicyclo[2.2.1]heptan-2-yl)-2-oxoethyl)-1H-indazole-3-carboxamide] | 1000 to 10000 nM
6 | NC(=O)c1nn(CC(=O)N2CCOC[C@H]2C(=O)Nc2cccc(C(F)(F)F)n2)c2ccccc12 [Example 23, (S)-4-(2-(3-carbamoyl-1H-indazol-1-yl)acetyl)-N-(6-(trifluoromethyl)pyridin-2-yl)morpholine-3-carboxamide] | 1000 to 10000 nM
7 | CC(=O)c1nn(CC(=O)N2[C@@H]3CC[C@@H](C3)[C@H]2C(=O)Nc2cccc(Cl)n2)c2ccc(C)cc12 [Example 83, (1R,3S,4S)-2-(2-(3-acetyl-5-methyl-1H-indazol-1-yl)acetyl)-N-(6-chloropyridin-2-yl)-2-azabicyclo[2.2.1]heptane-3-carboxamide] | 100 to 1000 nM
8 | COC(=O)Cc1ccc2c(C(N)=O)nn(CC(=O)N3[C@@H]4CC[C@@H](C4)[C@H]3C(=O)NCc3cccc(Cl)c3F)c2c1 [Example 126, methyl 2-(3-carbamoyl-1-(2-((1R,3S,4S)-3-((3-chloro-2-fluorobenzyl)carbamoyl)-2-azabicyclo[2.2.1]heptan-2-yl)-2-oxoethyl)-1H-indazol-6-yl)acetate] | 1000 to 10000 nM
9 | NC(=O)c1nn(CC(=O)N2[C@@H]3CC[C@@H](C3)[C@H]2C(=O)Nc2cccc(C(F)(F)F)n2)c2cnccc12 [Example 9, 1-(2-oxo-2-((1R,3S,4S)-3-((6-(trifluoromethyl)pyridin-2-yl)carbamoyl)-2-azabicyclo[2.2.1]heptan-2-yl)ethyl)-1H-pyrazolo[3,4-c]pyridine-3-carboxamide] | 100 to 1000 nM
10 | NC(=O)c1nn(CC(=O)N2[C@@H]3CC[C@@H](C3)[C@H]2C(=O)Nc2cccc(OC(F)(F)F)c2F)c2cnccc12 [Example 42, 1-(2-((1R,3S,4S)-3-((2-fluoro-3-(trifluoromethoxy)phenyl)carbamoyl)-2-azabicyclo[2.2.1]heptan-2-yl)-2-oxoethyl)-1H-pyrazolo[3,4-c]pyridine-3-carboxamide] | 1000 to 10000 nM
11 | NC(=O)c1nn(CC(=O)N2[C@@H]3CC[C@@H](C3)[C@H]2C(=O)NCc2cccc(Cl)c2F)c2ccncc12 [Example 98, 1-(2-((1R,3S)-3-((3-chloro-2-fluorobenzyl)carbamoyl)-2-azabicyclo[2.2.1]heptan-2-yl)-2-oxoethyl)-1H-pyrazolo[4,3-c]pyridine-3-carboxamide] | 1000 to 10000 nM
12 | N#CC(NC(=O)[C@@H]1[C@H]2CC[C@H](C2)N1C(=O)Cn1nc(C(N)=O)c2ccccc21)c1cccc(Cl)c1F (stereo partly drawn) [Example 141, 1-(2-((1R,3S,4S)-3-(((3-chloro-2-fluorophenyl)(cyano)methyl)carbamoyl)-2-azabicyclo[2.2.1]heptan-2-yl)-2-oxoethyl)-1H-indazole-3-carboxamide] | 100 to 1000 nM
13 | Cc1cccc(NC(=O)[C@@H]2[C@H]3CC[C@H](C3)N2C(=O)Cn2nc(C(N)=O)c3ccncc32)n1 [Example 7, 1-(2-((1R,3S,4S)-3-((6-methylpyridin-2-yl)carbamoyl)-2-azabicyclo[2.2.1]heptan-2-yl)-2-oxoethyl)-1H-pyrazolo[3,4-c]pyridine-3-carboxamide] | 1000 to 10000 nM
14 | CC(C)(C)OC(=O)N1CCN(C(=O)Cn2nc(C(N)=O)c3ccccc32)[C@H](C(=O)Nc2cccc(Cl)n2)C1 [Example 25, (S)-tert-butyl 4-(2-(3-carbamoyl-1H-indazol-1-yl)acetyl)-3-((6-chloropyridin-2-yl)carbamoyl)piperazine-1-carboxylate] | 1000 to 10000 nM
15 | CC(=O)c1nn(CC(=O)N2[C@@H]3CC[C@@H](C3)[C@H]2C(=O)Nc2cccc(Cl)n2)c2ccc(C#N)cc12 [Example 92, (1R,3S,4S)-2-(2-(3-acetyl-5-cyano-1H-indazol-1-yl)acetyl)-N-(6-chloropyridin-2-yl)-2-azabicyclo[2.2.1]heptane-3-carboxamide] | 100 to 1000 nM
16 | NC(=O)c1nn(CC(=O)N2[C@@H]3CC[C@@H](C3)[C@H]2C(=O)Nc2cnc3ccccc3n2)c2ccccc12 [Example 45, 1-(2-oxo-2-((1R,3S,4S)-3-(quinoxalin-2-ylcarbamoyl)-2-azabicyclo[2.2.1]heptan-2-yl)ethyl)-1H-indazole-3-carboxamide] | 1000 to 10000 nM
17 | NC(=O)c1nn(CC(=O)N2[C@@H]3CC[C@@H](C3)[C@H]2C(=O)NCc2cccc(Cl)c2F)c2cnccc12 [Example 39, 1-(2-((1R,3S,4S)-3-((3-chloro-2-fluorobenzyl)carbamoyl)-2-azabicyclo[2.2.1]heptan-2-yl)-2-oxoethyl)-1H-pyrazolo[3,4-c]pyridine-3-carboxamide] | 100 to 1000 nM
18 | Cc1cccc(NC(=O)[C@@H]2[C@H]3CC[C@H](C3)N2C(=O)Cn2nc(C(N)=O)c3ccccc32)n1 [Example 6, 1-(2-((1R,3S,4S)-3-((6-methylpyridin-2-yl)carbamoyl)-2-azabicyclo[2.2.1]heptan-2-yl)-2-oxoethyl)-1H-indazole-3-carboxamide] | 1000 to 10000 nM
19 | NC(=O)c1nn(CC(=O)N2[C@@H]3CCC(C3)[C@H]2C(=O)Nc2cccc(Cl)n2)c2ccc(Cl)cc12 [Example 12, 5-chloro-1-(2-((1R,3S)-3-((6-chloropyridin-2-yl)carbamoyl)-2-azabicyclo[2.2.1]heptan-2-yl)-2-oxoethyl)-1H-indazole-3-carboxamide] | 1000 to 10000 nM

Other lines, results leading:

Row | IC50 | SMILES
20 | 100 to 1000 nM | CC(=O)c1nn(CC(=O)N2[C@H](C(=O)Nc3cccc(Cl)n3)C[C@@H]3CCC[C@@H]32)c2ccc(C)cc12 [Example 176, (2S,3aS,6aS)-1-(2-(3-acetyl-5-methyl-1H-indazol-1-yl)acetyl)-N-(6-chloropyridin-2-yl)octahydrocyclopenta[b]pyrrole-2-carboxamide]
21 | 100 to 1000 nM | CC(=O)c1nn(CC(=O)N2[C@H](C(=O)Nc3cccc(Cl)n3)C[C@@H]3CCC[C@@H]32)c2ccccc12 [Example 180, (2S,3aS,6aS)-1-(2-(3-acetyl-1H-indazol-1-yl)acetyl)-N-(6-chloropyridin-2-yl)octahydrocyclopenta[b]pyrrole-2-carboxamide]
22 | 100 to 1000 nM | NC(=O)c1nc(CC(=O)N2CC[C@H]2C(=O)NCc2cccc(Cl)c2F)n2ccccc12 [Example 191, (S)-3-(2-(2-((3-chloro-2-fluorobenzyl)carbamoyl)azetidin-1-yl)-2-oxoethyl)imidazo[1,5-a]pyridine-1-carboxamide]
23 | 1000 to 10000 nM | NC(=O)c1nn(CC(=O)N2[C@H](C(=O)Nc3cccc(Cl)n3)C[C@@H]3CCC[C@@H]32)c2ccc([N+](=O)[O-])cc12 [Example 173, 1-(2-((2S,3aS,6aS)-2-((6-chloropyridin-2-yl)carbamoyl)hexahydrocyclopenta[b]pyrrol-1(2H)-yl)-2-oxoethyl)-5-nitro-1H-indazole-3-carboxamide]
24 | 1000 to 10000 nM | NC(=O)c1nn(CC(=O)N2[C@H](C(N)=O)C[C@H]2C(=O)NCc2cccc(Cl)c2F)c2ccccc12 (relative stereo) [Example 196, trans-1-(2-(3-carbamoyl-1H-indazol-1-yl)acetyl)-N2-(3-chloro-2-fluorobenzyl)azetidine-2,4-dicarboxamide]
25 | > 10000 nM | NC(=O)c1nn(CC(=O)N2[C@H]3CC[C@H](CC3)[C@@H]2C(=O)Nc2cccc(Cl)c2F)c2ccccc12 [Example 149, (1S,3R,4S)-2-(2-(3-carbamoyl-1H-indazol-1-yl)acetyl)-N-(3-chloro-2-fluorophenyl)-2-azabicyclo[2.2,2]octane-3-carboxamide]
26 | 100 to 1000 nM | NC(=O)c1nn(CC(=O)N2[C@H](C(=O)NCc3cccc(Cl)c3F)C[C@@H]3CCC[C@@H]32)c2ccc(C3CC3)cc12 [Example 199, 1-(2-((2S,3aS,6aS)-2-((3-chloro-2-fluorobenzyl)carbamoyl)hexahydrocyclopenta[b]pyrrol-1(2H)-yl)-2-oxoethyl)-5-cyclopropyl-1H-indazole-3-carboxamide]
27 | 1000 to 10000 nM | CC(=O)c1nc(CC(=O)N2CC[C@H]2C(=O)NCc2cccc(Cl)c2F)n2ccccc12 [Example 192, (S)-1-(2-(1-acetylimidazo[1,5-a]pyridin-3-yl)acetyl)-N-(3-chloro-2-fluorobenzyl)azetidine-2-carboxamide]
